For eight compounds, IC50 results are on record in US8614290B2, “Cancer imaging and treatment” (Technische Universitat Munchen, priority 2007, dated 2013).

In the assay the target is human CXCR4 (Homo sapiens, UniProt P61073). The assay is described as follows: Competitive receptor binding assay on Jurkat cells with 125I-CPCR4 as tracer. Details: Jurkat cells that endogenously express the CXCR4 receptor; endogenous in cells; host or cells: Jurkat cells. Here is the method:
For receptor binding assays cells were resuspended in PBS/0.2% BSA. A total of 200 μl of the suspension containing 400,000 Jurkat cells were incubated with 25 μl of the tracer solution (containing 3.1 kBq, approx. 0.1 nM) and 25 μl of the diluent or the competitor at different concentrations. […] After shaking for 2 h at room temperature, the incubation was terminated by centrifugation at 1300 rpm for 5 min. Cell pellets were washed once with cold PBS followed by a second centrifugation step. Cell bound radioactivity was determined by using a gamma counter. Experiments were repeated 2-3 times in triplicates. IC50 values of the compounds were calculated by nonlinear regression using GraphPad Prism (GraphPad Prism 4.0 Software, Inc., San Diego, Calif., USA). Each data point is the average of three determinations.

Setting [1] is: Table 10, dimers and monomers, read-out: IC50.

Read-outs that look alike come from different tables or passages of the source. Numbered stars: 1 amine (or outer) side, 2 acyl side, 3 side chain; on linkers, the order of the positions; unused ones are H or OH. Bridge positions count the residues as written; N and C are the ends. Square brackets hold non-standard residues; d marks the D form. Peptide text beside a SMILES is read from it. I, II: the chains in the order shown. * marks the point of attachment. C16 diacid = O=C(O)CCCCCCCCCCCCCCC(=O)*; 2Nal = N[C@@H](Cc1ccc2ccccc2c1)C(=O)O; Glutaryl = O=C(CCCC(=O)[*:2])[*:1]; dNMeOrn = CN[C@H](CCCN)C(=O)O; Suc = O=C(CCC(=O)[*:2])[*:1]

Chain of human CXCR4 (P61073 whole entry): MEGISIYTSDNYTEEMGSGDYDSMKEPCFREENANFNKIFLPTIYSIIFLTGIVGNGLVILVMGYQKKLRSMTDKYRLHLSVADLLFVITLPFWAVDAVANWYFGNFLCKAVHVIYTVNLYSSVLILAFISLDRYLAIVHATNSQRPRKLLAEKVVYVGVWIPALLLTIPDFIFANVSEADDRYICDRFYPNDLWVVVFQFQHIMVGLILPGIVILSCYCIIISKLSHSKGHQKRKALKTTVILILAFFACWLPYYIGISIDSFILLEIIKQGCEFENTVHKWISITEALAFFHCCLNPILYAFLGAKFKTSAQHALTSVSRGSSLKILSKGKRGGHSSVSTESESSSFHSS

Take `CN1C(=O)[C@@H](Cc2ccc(O)cc2)NC(=O)CNC(=O)[C@H](Cc2ccc3ccccc3c2)NC(=O)[C@H](CCCNC(=N)N)NC(=O)[C@H]1CCCNC(=O)C[C@H](NC(=O)CCCCCNC(=O)CN1CCN(CC(=O)O)CCN(CC(=O)O)CCN(CC(=O)O)CC1)C(=O)NCCC[C@@H]1C(=O)N[C@@H](CCCNC(=N)N)C(=O)N[C@@H](Cc2ccc3ccccc3c2)C(=O)NCC(=O)N[C@H](Cc2ccc(O)cc2)C(=O)N1C` [NMe-D-Orn DOTAAhxAsp]: the IC50 under setting [1] amounted to 92.1 nM. Take `CN1C(=O)[C@@H](Cc2ccc(O)cc2)NC(=O)CNC(=O)[C@H](Cc2ccc3ccccc3c2)NC(=O)[C@H](CCCNC(=N)N)NC(=O)[C@H]1CCCNC(=O)CCCC(=O)NCCC[C@@H]1C(=O)N[C@@H](CCCNC(=N)N)C(=O)N[C@@H](Cc2ccc3ccccc3c2)C(=O)NCC(=O)N[C@H](Cc2ccc(O)cc2)C(=O)N1C` [NMe-D-Orn n = 3] (I: cyclo([2Nal]G[dY][dNMeOrn]R) / II: cyclo([2Nal]G[dY][dNMeOrn]R); linker I:4-II:4 via Glutaryl): the IC50 (read-out: IC50 (affinity)) was determined as 4.28 ± 2.3 nM. For the compound `CN1C(=O)[C@@H](Cc2ccc(O)cc2)NC(=O)CNC(=O)[C@H](Cc2ccc3ccccc3c2)NC(=O)[C@H](CCCNC(=N)N)NC(=O)[C@H]1CCCNC(=O)CCC(=O)NCCC[C@@H]1C(=O)N[C@@H](CCCNC(=N)N)C(=O)N[C@@H](Cc2ccc3ccccc3c2)C(=O)NCC(=O)N[C@H](Cc2ccc(O)cc2)C(=O)N1C` [NMe-D-Orn n = 2] (I: cyclo([2Nal]G[dY][dNMeOrn]R) / II: cyclo([2Nal]G[dY][dNMeOrn]R); linker I:4-II:4 via Suc), the IC50 under setting [1] was determined as 6.61 nM. For `CN1C(=O)[C@@H](Cc2ccc(O)cc2)NC(=O)CNC(=O)[C@H](Cc2ccc3ccccc3c2)NC(=O)[C@H](CCCNC(=N)N)NC(=O)[C@H]1CCCNC(=O)CNC(=O)C[C@H](NC(=O)CCCCCNC(=O)CN1CCN(CC(=O)O)CCN(CC(=O)O)CCN(CC(=O)O)CC1)C(=O)NCC(=O)NCCC[C@@H]1C(=O)N[C@@H](CCCNC(=N)N)C(=O)N[C@@H](Cc2ccc3ccccc3c2)C(=O)NCC(=O)N[C@H](Cc2ccc(O)cc2)C(=O)N1C` [NMe-D-Orn + Gly DOTAAhxAsp], the IC50 under setting [1] turned out to be 38 nM.

Take `CN1C(=O)[C@@H](Cc2ccc(O)cc2)NC(=O)CNC(=O)[C@H](Cc2ccc3ccccc3c2)NC(=O)[C@H](CCCNC(=N)N)NC(=O)[C@H]1CCCNC(=O)CCCCCCCCCCCCCCC(=O)NCCC[C@@H]1C(=O)N[C@@H](CCCNC(=N)N)C(=O)N[C@@H](Cc2ccc3ccccc3c2)C(=O)NCC(=O)N[C@H](Cc2ccc(O)cc2)C(=O)N1C` [NMe-D-Orn n = 14] (I: cyclo([2Nal]G[dY][dNMeOrn]R) / II: cyclo([2Nal]G[dY][dNMeOrn]R); linker I:4-II:4 via C16 diacid (inferred); ring closure inferred): the IC50 under setting [1] came out at 33.5 nM. `N=C(N)NCCC[C@@H]1NC(=O)[C@H](Cc2c[nH]cn2)NC(=O)[C@@H](Cc2ccc(O)cc2)NC(=O)CNC(=O)[C@H](Cc2ccc3ccccc3c2)NC1=O` [cyc[D-Tyr-His-Arg-Nal-Gly]] (HELM PEPTIDE1{[O=C([C@H](Cc1ccc2ccccc2c1)N[*:1])[*:2]].G.[dY].H.R}$PEPTIDE1,PEPTIDE1,1:R1-5:R2$$$V2.0): for the setting “Table 5, D-Orn derivatives, His, Phe, read-out: IC50”, the IC50 turned out to be 30 nM. For `CN1C(=O)[C@@H](Cc2ccc(O)cc2)NC(=O)CNC(=O)[C@H](Cc2ccc3ccccc3c2)NC(=O)[C@H](CCCNC(=N)N)NC(=O)[C@@H]1CCCNC(=N)N` [OD1, cyc[D-Tyr-(Me)Arg-Arg-Nal-Gly]], the IC50 (Table 1, Nα-monomethylated cyclic pentapeptides, read-out: IC50) came to 23 nM. As for `N=C(N)NCCC[C@@H]1NC(=O)[C@H](CCCNC(=O)CON=CCCCC=NOCC(=O)NCCC[C@@H]2NC(=O)[C@@H](Cc3ccc(O)cc3)NC(=O)CNC(=O)[C@H](Cc3ccc4ccccc4c3)NC(=O)[C@H](CCCNC(=N)N)NC2=O)NC(=O)[C@@H](Cc2ccc(O)cc2)NC(=O)CNC(=O)[C@H](Cc2ccc3ccccc3c2)NC1=O` [Code A22, glutaric aldehyde-(cyclo[D-Tyr-Orn(amineoxyacetyl)-Arg-2-Nal-Gly])2], the IC50 was 57.9 nM under setting [1] and 58 ± 4.2 nM (read-out: IC50 (affinity)).
